This passage reports IC50, logKi and logIC50 results from ChEMBL document CHEMBL1155424, “3D-QSAR and docking studies on transforming growth factor (TGF)-beta receptor 1 antagonists” (Bioorg Med Chem Lett, 2010).

The target in the first assay is T1, TGF-beta receptor type-1 (Homo sapiens, UniProt P36897).
T1 sequence (P36897 whole entry): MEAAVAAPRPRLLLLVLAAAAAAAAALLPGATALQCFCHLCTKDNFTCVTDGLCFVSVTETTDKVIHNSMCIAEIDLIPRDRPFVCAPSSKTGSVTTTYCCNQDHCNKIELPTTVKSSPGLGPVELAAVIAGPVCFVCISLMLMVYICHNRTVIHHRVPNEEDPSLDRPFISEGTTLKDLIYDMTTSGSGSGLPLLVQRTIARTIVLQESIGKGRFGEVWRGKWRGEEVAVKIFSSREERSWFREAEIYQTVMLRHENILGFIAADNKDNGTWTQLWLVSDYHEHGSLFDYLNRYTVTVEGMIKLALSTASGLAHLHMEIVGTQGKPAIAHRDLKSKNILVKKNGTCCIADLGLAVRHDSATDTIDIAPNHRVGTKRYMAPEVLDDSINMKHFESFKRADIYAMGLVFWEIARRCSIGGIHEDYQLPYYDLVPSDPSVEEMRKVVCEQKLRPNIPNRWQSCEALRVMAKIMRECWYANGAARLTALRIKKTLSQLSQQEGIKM
Description: Antagonistic activity at TGFBR1
Usually IC50 stands for the concentration at which inhibition is half-maximal. A low value points to greater potency in that assay. The compound `Cc1cccc(-c2[nH]c(CNc3ccc(C#N)cc3)nc2-c2ccc3c(c2)OCO3)n1` displayed an IC50 of 171 nM.

The target in the next assay is T2, TGF-beta receptor type-1 (Homo sapiens) (UniProt P36897).
T2 sequence (whole entry): T1 sequence (P36897 whole entry)
Description: Antagonistic activity at TGFBR1
Regarding `CCc1cccc(-c2[nH]c(CNc3ccc(C#N)cc3)nc2-c2ccc3nccnc3c2)n1`, the logKi is -1.32. For the compound `O=C(O)c1ccc(-c2nc(-c3ccc4c(c3)OCO4)c(-c3ccccn3)[nH]2)cc1`, the logIC50 is -0.77. With `Cc1cccc(-c2[nH]c(CNc3cccc(C#N)c3)nc2-c2ccc3nccnc3c2)n1`, the logIC50 was -1.92. On to `CCc1cccc(-c2[nH]c(CNc3ccc(C#N)cc3)nc2-c2ccc3c(c2)OCO3)n1`, for which the logIC50 was -0.443. On the same count and under the same terms, next, `Cc1cccc(-c2[nH]c(CNc3cccc(C(N)=O)c3)nc2-c2ccc3c(c2)OCO3)n1`: -1.68; `Cc1cccc(-c2[nH]c(CNc3cccc(C#N)c3)nc2-c2ccc3c(c2)OCO3)n1`: -1.34. Turning to `Cc1cccc(-c2[nH]c(CNc3ccc(C(N)=O)cc3)nc2-c2ccc3nccnc3c2)n1`, the logIC50 was -1.12.

Consider `Cc1cccc(-c2[nH]c(NCc3cccc(C#N)c3)nc2-c2ccc3c(c2)OCO3)n1`, for which the logIC50 is -1.62. The same measure, in the same setting: the value for `Cc1cccc(-c2[nH]c(NCc3ccc(C#N)cc3)nc2-c2ccc3c(c2)OCO3)n1` was -0.815; that for `Cc1cccc(-c2[nH]c(CNc3ccc(C#N)cc3)nc2-c2ccc3nccnc3c2)n1` was -1.38; that for `Cc1cccc(-c2[nH]c(CNc3ccc(C#N)cc3)nc2-c2ccc3c(c2)OCO3)n1` was -0.759.

For the compound `CCc1cccc(-c2[nH]c(CNc3ccc(C(N)=O)cc3)nc2-c2ccc3c(c2)OCO3)n1`, the logIC50 was -0.415.

As to `Cc1cccc(-c2[nH]c(CNc3ccc(C(N)=O)cc3)nc2-c2ccc3c(c2)OCO3)n1`, the logIC50 was -0.582.

As for `CCc1cccc(-c2[nH]c(CNc3cccc(C#N)c3)nc2-c2ccc3nccnc3c2)n1`, the logIC50 is -0.924. Regarding `CCc1cccc(-c2[nH]c(CNc3cccc(C#N)c3)nc2-c2ccc3c(c2)OCO3)n1`, the logIC50 is -1.14. The same measure, in the same setting: next, `CCc1cccc(-c2[nH]c(CNc3cccc(C(N)=O)c3)nc2-c2ccc3c(c2)OCO3)n1`: -1.34. For the compound `Cc1cccc(-c2[nH]c(CNc3cccc(C(N)=O)c3)nc2-c2ccc3nccnc3c2)n1`, the logKi is -2. Still for that read-out and setting: the value for `OCc1ccc(-c2nc(-c3ccccn3)c(-c3ccc4c(c3)OCO4)[nH]2)cc1` was -0.585. Take `N#Cc1ccc(-c2nc(-c3ccc4c(c3)OCO4)c(-c3ccccn3)[nH]2)cc1`: the logIC50 came to 0.47. On the same count and under the same terms, the value for `Cc1cccc(-c2[nH]c(C(C)(C)C)nc2-c2ccc3c(c2)OCO3)n1` was -1.33; that for `CCc1cccc(-c2[nH]c(CNc3cccc(C(N)=O)c3)nc2-c2ccc3nccnc3c2)n1` was -1.82.
